Measurements taken from ChEMBL document CHEMBL1150924, “Triterpenes and saponins from Rudgea viburnioides” (J Nat Prod, 1998).
Calls of active or inactive are those of the source. The rule behind the calls is not given here.

Tests used:
Assay type in all cases: functional, organism-based
[1] = system: Cladosporium cladosporioides; assay: Antifungal activity against Cladosporium cladosporioides at 5 ug by TLC bioassay
[2] = system: Cladosporium cladosporioides; assay: Antifungal activity against Cladosporium cladosporioides at 50 ug by TLC bioassay
[3] = system: Cladosporium cladosporioides; assay: Antifungal activity against Cladosporium cladosporioides at 1 ug by TLC bioassay

NYSTATIN
Activity [1]: Active

C[C@@H]1CC[C@]2(C)CC[C@]3(C)C(=CC[C@@H]4[C@@]5(C)C[C@@H](O)[C@H](O)C(CO)(CO)[C@@H]5CC[C@]43C)[C@@H]2[C@]1(C)O
Activity [2]: Active

Clc1ccc(COC(Cn2ccnc2)c2ccc(Cl)cc2Cl)c(Cl)c1 (stereo not drawn)
Activity [3]: Active
